Reference: BindingDB's records for doi:10.7270/Q2TX3CTT (Broad Institute, 2010)
Counter-ions that a name gives are not always drawn.

Molecular target: Glycogen synthase kinase-3 beta (Homo sapiens, UniProt P49841)
Test: GSK3beta kinase inhibitor potency, dose response, biochemical, luminescence, cell-free homogeneous, retest (AID 434954)

Sequence of Glycogen synthase kinase-3 beta (P49841 whole entry): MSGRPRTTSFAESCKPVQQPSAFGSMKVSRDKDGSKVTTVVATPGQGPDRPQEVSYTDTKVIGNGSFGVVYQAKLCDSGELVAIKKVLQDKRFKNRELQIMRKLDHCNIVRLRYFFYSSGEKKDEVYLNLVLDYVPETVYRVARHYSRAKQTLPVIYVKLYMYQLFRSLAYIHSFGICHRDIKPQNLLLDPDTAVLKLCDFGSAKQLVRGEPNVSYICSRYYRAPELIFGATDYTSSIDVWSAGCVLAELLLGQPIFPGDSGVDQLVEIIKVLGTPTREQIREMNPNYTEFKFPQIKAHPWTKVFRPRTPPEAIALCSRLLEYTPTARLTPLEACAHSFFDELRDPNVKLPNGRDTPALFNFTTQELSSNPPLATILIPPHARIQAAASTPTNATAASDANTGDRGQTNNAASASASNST

Row | Compound | EC50 [µM]
1 | C=CCN=C(NC#N)SCC(=O)c1cccc(OC)c1 [[2-(3-methoxyphenyl)-2-oxidanylidene-ethyl] N-cyano-N'-prop-2-enyl-carbamimidothioate] | 1.23
2 | CCN(CC)C(=O)COC(=O)c1ccc(O)cc1 [[2-(diethylamino)-2-oxoethyl] 4-hydroxybenzoate] | > 300
3 | COCCOc1ccc(C(F)(F)F)cc1NC(=O)COC(=O)c1cc[n+]([O-])cc1 [[2-[2-(2-methoxyethoxy)-5-(trifluoromethyl)anilino]-2-oxoethyl] 1-oxidopyridin-1-ium-4-carboxylate] | > 300
4 | CCC1(CC)NC(=O)N(CC(=O)OCC(=O)Nc2sccc2C#N)C1=O [[2-[(3-cyanothiophen-2-yl)amino]-2-oxoethyl] 2-(4,4-diethyl-2,5-dioxoimidazolidin-1-yl)acetate] | > 300
5 | CCCCOc1ccc(/C=C/C(=O)OCC(=O)N2CC(=O)Nc3ccccc32)cc1OCC [[2-oxidanylidene-2-(3-oxidanylidene-2,4-dihydroquinoxalin-1-yl)ethyl] (E)-3-(4-butoxy-3-ethoxy-phenyl)prop-2-enoate] | > 300
6 | COc1ccccc1CNC(=O)OCc1nccnc1C(=O)Nc1ccc(Br)cn1 [[3-[(5-bromopyridin-2-yl)carbamoyl]pyrazin-2-yl]methyl N-[(2-methoxyphenyl)methyl]carbamate] | > 300
7 | Cc1ccc(N2CCN(C(=O)N3CCOCC3)CC2)c(C)c1 [[4-(2,4-dimethylphenyl)piperazin-1-yl]-morpholin-4-ylmethanone] | > 300
8 | CCN1CCN(c2c(C(=O)c3ccc(OC)cc3)cnc3ccccc23)CC1 [[4-(4-ethylpiperazin-1-yl)quinolin-3-yl](4-methoxyphenyl)methanone] | > 300
9 | CCN(CC)Cc1c(O)ccc2occ(C(=O)c3ccc(OC)cc3)c12 [[4-(diethylaminomethyl)-5-oxidanyl-1-benzofuran-3-yl]-(4-methoxyphenyl)methanone] | > 300
10 | O=C(c1cccs1)c1coc2ccc(O)c(CN3CCOCC3)c12 [[4-(morpholin-4-ylmethyl)-5-oxidanyl-1-benzofuran-3-yl]-thiophen-2-yl-methanone] | > 300
11 | COc1ccc2occ(C(=O)c3coc4ccc(O)c(CN(C)C)c34)c2c1 [[4-[(dimethylamino)methyl]-5-oxidanyl-1-benzofuran-3-yl]-(5-methoxy-1-benzofuran-3-yl)methanone;hydrochloride] | 1.99
12 | O=C(c1cccs1)c1coc2ccc(O)c(CN(CCO)CCO)c12 [[4-[[bis(2-hydroxyethyl)amino]methyl]-5-oxidanyl-1-benzofuran-3-yl]-thiophen-2-yl-methanone;hydrochloride] | > 300
13 | Nc1nc(Nc2ccccc2F)sc1C(=O)c1ccccc1 [[4-amino-2-(2-fluoroanilino)-1,3-thiazol-5-yl]-phenylmethanone] | 0.622
14 | CCNc1nc(N)c(C(=O)c2ccc(Cl)s2)s1 [[4-amino-2-(ethylamino)-1,3-thiazol-5-yl]-(5-chlorothiophen-2-yl)methanone] | 0.174
15 | O=C(c1cc(COc2ccc(F)cc2F)on1)N1CCCC(c2ccccc2)C1 (stereo not drawn) [[5-[[2,4-bis(fluoranyl)phenoxy]methyl]-1,2-oxazol-3-yl]-(3-phenylpiperidin-1-yl)methanone] | > 300
16 | COc1ccc(C(=O)c2coc3ccc(O)c(CN4CCCC4)c23)cc1 [[5-hydroxy-4-(1-pyrrolidinylmethyl)-3-benzofuranyl]-(4-methoxyphenyl)methanone] | > 300
17 | COc1ccc(C(=O)c2coc3ccc(O)c(CN4CCCCC4)c23)cc1 [[5-hydroxy-4-(piperidin-1-ylmethyl)-1-benzofuran-3-yl]-(4-methoxyphenyl)methanone] | > 300
18 | CCOc1ccc2ncc(C(=O)c3ccc(OC)cc3)c(N3CCN(CC)CC3)c2c1 [[6-ethoxy-4-(4-ethylpiperazin-1-yl)quinolin-3-yl](4-methoxyphenyl)methanone] | > 300
19 | O=C(/[O+]=N/[CH-]c1ccc(N2CCCCC2)c([N+](=O)[O-])c1)c1cccc(Cl)c1 [[(3-nitro-4-piperidin-1-yl-phenyl)methylideneamino] 3-chloranylbenzoate] | > 300
20 | Cc1ccc(C(=O)/[O+]=N/[CH-]c2ccc(N3CCCCC3)c([N+](=O)[O-])c2)cc1 [[(3-nitro-4-piperidin-1-ylphenyl)methylideneamino] 4-methylbenzoate] | > 300
21 | COc1ccc(-c2nn(-c3ccccc3)cc2C=NNC(N)=S)cc1OC [[[3-(3,4-dimethoxyphenyl)-1-phenyl-4-pyrazolyl]methylideneamino]thiourea] | > 300
22 | COc1c(CC=C(C)C)cc([C@@H]2CC(=O)c3c(O)cc(O)cc3O2)cc1CC=C(C)C [abyssinone-V-4'-O-methyl ether] | > 300
23 | CC(=O)Oc1ccc2occ(C(=O)c3ccccc3)c2c1 [acetic acid (3-benzoyl-5-benzofuranyl) ester] | > 300
24 | COc1ccc(C2CC(=O)c3c(O)cc(O)cc3O2)c(CC=C(C)C)c1OC (stereo not drawn) [antiarone F] | > 300

Row | Compound | EC50 [µM]
25 | Cc1cn(C2OC(COC(=O)c3ccccc3)C(O)C2O)c(=O)[nH]c1=O (stereo not drawn) [benzoic acid [3,4-dihydroxy-5-(5-methyl-2,4-dioxo-1-pyrimidinyl)-2-oxolanyl]methyl ester] | 19.2
26 | CC1=Nc2ncnn2C(c2ccco2)C1C(=O)OCc1ccccc1 (stereo not drawn) [benzyl 7-(furan-2-yl)-5-methyl-1,7-dihydro-[1,2,4]triazolo[1,5-a]pyrimidine-6-carboxylate] | 40.7
27 | CCCCOC(=O)c1ccc(O)cc1 [butyl 4-hydroxybenzoate] | > 300
28 | CCCCOC(=O)C1C(C)=Nc2ncnn2C1c1cc(OC)c(OC)cc1OC (stereo not drawn) [butyl 5-methyl-7-(2,4,5-trimethoxyphenyl)-4,7-dihydro[1,2,4]triazolo[1,5-a]pyrimidine-6-carboxylate] | > 300
29 | CCCCOC(=O)C1C(C)=Nc2ncnn2C1c1cccc(OC)c1OC (stereo not drawn) [butyl 7-(2,3-dimethoxyphenyl)-5-methyl-4,7-dihydro[1,2,4]triazolo[1,5-a]pyrimidine-6-carboxylate] | 4.25
30 | CCOC(=O)c1ccc2ncc(C(=O)OCC)c(Nc3ccc(N4CCOCC4)cc3)c2c1 [diethyl 4-[(4-morpholin-4-ylphenyl)amino]quinoline-3,6-dicarboxylate] | > 300
31 | COC(=O)C(C(=O)OC)c1ccc(NC(=O)c2cccc(Cl)c2)cc1 [dimethyl 2-{4-[(3-chlorobenzoyl)amino]phenyl}malonate] | > 300
32 | Cc1nn(-c2ccccn2)c2c1C(c1ccsc1)C1C(=O)CCCC1=N2 (stereo not drawn) [ethanol;3-methyl-1-(2-pyridinyl)-4-(3-thiophenyl)-4,6,7,8-tetrahydro-2H-pyrazolo[3,4-b]quinolin-5-one] | > 300
33 | CCOC(=O)c1c(S(=O)(=O)NCC(=O)NCc2ccc(C)cc2)c(C)n(C)c1C [ethyl 1,2,5-trimethyl-4-[[2-[(4-methylphenyl)methylamino]-2-oxoethyl]sulfamoyl]pyrrole-3-carboxylate] | > 300
34 | CCOC(=O)c1nnn(-c2nonc2N)c1CN1CCc2ccccc2C1 [ethyl 1-(4-amino-1,2,5-oxadiazol-3-yl)-5-(3,4-dihydro-1H-isoquinolin-2-ylmethyl)triazole-4-carboxylate] | 71.5
35 | CCOC(=O)c1nnn(-c2nonc2N)c1-c1ccc(C)cc1 [ethyl 1-(4-amino-1,2,5-oxadiazol-3-yl)-5-(4-methylphenyl)triazole-4-carboxylate] | 51
36 | CCOC(=O)c1nnn(-c2nonc2N)c1CN(CC)CC [ethyl 1-(4-amino-1,2,5-oxadiazol-3-yl)-5-(diethylaminomethyl)triazole-4-carboxylate] | > 300
37 | CCOC(=O)c1nnn(-c2nonc2N)c1COc1ccccc1 [ethyl 1-(4-amino-1,2,5-oxadiazol-3-yl)-5-(phenoxymethyl)triazole-4-carboxylate] | 23.8
38 | CCOC(=O)c1nnn(-c2nonc2N)c1CSc1ccccc1 [ethyl 1-(4-amino-1,2,5-oxadiazol-3-yl)-5-[(phenylthio)methyl]-1H-1,2,3-triazole-4-carboxylate] | 14.7
39 | CCOC(=O)C1CCN(CC(O)COC(CC)c2ccccc2)CC1 (stereo not drawn) [ethyl 1-[2-oxidanyl-3-(1-phenylpropoxy)propyl]piperidine-4-carboxylate;hydrochloride] | > 300
40 | CCOC(=O)c1c(C)[nH]c(C)c1C(=O)CN1C(=O)NC(CC(C)C)C1=O (stereo not drawn) [ethyl 2,5-dimethyl-4-[2-[4-(2-methylpropyl)-2,5-dioxoimidazolidin-1-yl]acetyl]-1H-pyrrole-3-carboxylate] | > 300
41 | CCOC(=O)c1c(C)[nH]c(C)c1S(=O)(=O)NCC(=O)Nc1ccccn1 [ethyl 2,5-dimethyl-4-[[2-oxo-2-(pyridin-2-ylamino)ethyl]sulfamoyl]-1H-pyrrole-3-carboxylate] | > 300
42 | CCOC(=O)CSc1ccc2nnc(-c3ccccc3)n2n1 [ethyl 2-[(3-phenyl-[1,2,4]triazolo[4,3-b]pyridazin-6-yl)sulfanyl]acetate] | 44.6
43 | CCOC(=O)CSc1ccc2nnc(-c3cccs3)n2n1 [ethyl 2-[(3-thiophen-2-yl-[1,2,4]triazolo[4,3-b]pyridazin-6-yl)sulfanyl]ethanoate] | 4.1
44 | CCOC(=O)CNC(=O)CSc1ccc2nnc(-c3cccnc3)n2n1 [ethyl 2-[[2-[(3-pyridin-3-yl-[1,2,4]triazolo[4,3-b]pyridazin-6-yl)sulfanyl]acetyl]amino]acetate] | > 300
45 | CCCCCCNC(=O)C(C(=O)OCC)C1CCCCC1 (stereo not drawn) [ethyl 2-cyclohexyl-3-(hexylamino)-3-oxidanylidene-propanoate] | > 300
46 | CCOC(=O)CCNCC1COc2ccccc2O1 (stereo not drawn) [ethyl 3-(2,3-dihydro-1,4-benzodioxin-3-ylmethylamino)propanoate;hydrochloride] | > 300
47 | CCOC(=O)CC(=O)CSc1ccc2nnc(-c3ccccc3)n2n1 [ethyl 3-oxo-4-[(3-phenyl[1,2,4]triazolo[4,3-b]pyridazin-6-yl)thio]butanoate] | > 300
48 | CCOC(=O)c1ccc(NC(=O)CN(C)S(=O)(=O)c2ccc(Br)s2)cc1 [ethyl 4-[2-[(5-bromanylthiophen-2-yl)sulfonyl-methyl-amino]ethanoylamino]benzoate] | > 300
